According to US11369609B2, “Small molecule Wnt inhibitor as treatment for dyslipidemia” (Yale University, priority 2019, dated 2022):

What was measured:
[1] = test system: diabetic GR^ECKO mice and control littermates; experiment: Etomoxir and C75 in diabetic control littermates and diabetic GR^ECKO mice; type: in vivo; conditions: for body weight: diabetic control littermates and GR^ECKO mice, ip three times per week for 3 weeks
Description: (§1) All experiments were performed in accordance with the National Institute of Health (NIH) Guidelines for the Care of Laboratory Animals. Mice lacking the endothelial glucocorticoid receptor (GR) (known as GR^ECKO) and those lacking this receptor on the Apo E null background (DKO) were generated as previously described (6). The induction of diabetes in CD-1 mice and C57B/L6 mice was performed according to previously established experimental protocols (38-42). Briefly, diabetes was induced in 10-week-old GR^ECKO mice with five consecutive intraperitoneal (IP) doses of streptozotocin (STZ) 50 mg/kg in 10 mmol/L citrate buffer (pH 4.5). Wnt inhibitor (LGK974) was provided to GR^ECKO and control littermate at 5 mg/kg at a frequency of six doses per week for 8 weeks (43). Etomoxir (20 mg/kg) and c75 (15 mg/kg) were dosed (ip) three times per week for 3 weeks in the GR^ECKO and control littermate. A single IP dose of 200 mg/kg STZ was used to induce diabetes in CD-1 mice. Fenofibrate (100 mg/kg), simvastatin (40 mg/kg), were dosed orally for 4 weeks in diabetic CD-1 mice. All mice were sacrificed after 4 weeks of treatment and tissues and blood were harvested. Urine albumin levels were assayed using a Mouse Albumin ELISA Kit (Exocell, Philadelphia, Pa.).
(§2) A point-counting method was utilized to evaluate the relative area of the mesangial matrix. PAS-stained glomeruli from each mouse were analyzed using a digital microscope screen grid containing 540 (27×20) points. Masson's trichrome-stained images were evaluated by ImageJ software, and the fibrotic areas were estimated.
(§3) Deparaffinized sections were incubated with picrosirius red solution for 1 hour at room temperature. The slides were washed twice with acetic acid solution for 30 seconds per wash. The slides were then dehydrated in absolute alcohol three times, cleared in xylene, and mounted with a synthetic resin. Sirius red staining was analyzed using ImageJ software, and fibrotic areas were quantified.
(§4) Paraffin-embedded kidney sections (5 μm thick) were deparaffinized and rehydrated (2 min in xylene, four times; 1 min in 100% ethanol, twice; 1 min in 95% ethanol; 45 s in 70% ethanol; and 1 min in distilled water), and the antigen was retrieved in a 10 mM citrate buffer pH 6 at 98° C. for 60 min. To block the endogenous peroxidase, all sections were incubated in 0.3% hydrogen peroxide for 10 min. The immunohistochemistry was performed using a Vectastain ABC Kit (Vector Laboratories, Burlingame, Calif.). Mouse anti-[…] antibody (1:100) and CPT1a (Abnova; H00001374-DO1P; 1:100) antibody was used. In the negative controls, the primary antibody was omitted and replaced with the blocking solution.
Etomoxir and C75 were also tested in the diabetic control littermates and diabetic GR^ECKO mice. […] (FIG. 17D-E).

diabetic CD-1 mice = experiment: FA metabolism modulators and simvastatin in diabetic CD-1 mice (renal fibrosis); type: in vivo; conditions: for fibrogenic phenotype / level of fibrosis in kidneys / fibronectin mRNA level in diabetic kidneys / level of GR protein in CD31 positive cells / αSMA mRNA level in diabetic kidneys: diabetic CD-1 mice treated for 4 weeks; for CPT1a level / β-catenin level: diabetic CD-1 mice, kidney immunohistochemistry
Description: as §1, §2, §3, §4
Frozen kidney sections (5 μm) were used for immunofluorescence; double positive labeling with CD31/αSMA, CD31/TGFβR1 and E-cadherin/αSMA was measured. Briefly, frozen sections were dried and placed in acetone for 10 min at −30° C. Once the sections were dried, they were washed twice in phosphate-buffered saline (PBS) for 5 min and then blocked in 2% bovine serum albumin/PBS for 30 min at room temperature. Thereafter, the sections were incubated in primary antibody (1:100) for 1 hour and washed in PBS (5 min) three times. Next, the sections were incubated with the secondary antibodies for 30 min, washed with PBS three times (5 min each), and mounted with mounting medium with DAPI (Vector Laboratories, Burlingame, Calif.). The immune-labeled sections were analyzed by fluorescence microscopy. For each mouse, original magnification of ×400 pictures were obtained from six different areas, and quantification was performed.
Total RNA was isolated using standard Trizol protocol. RNA was reverse transcribed using the iScript cDNA Synthesis kit (Bio-Rad) and qPCR was performed on a Bio-Rad C1000 Touch thermal cycler using the resultant cDNA, as well as qPCR Master mix and gene specific primers.
It is increasingly recognized that defects in central metabolism contribute to kidney fibrosis (69, 76). […]

kidney endothelial cells = experiment: Fatty acid oxidation (14CO2 release from [14C]palmitate) in isolated kidney endothelial cells; type: in vivo, mice; conditions: for FAO, as measured by 14CO2 release: diabetic CD-1 mice treated for 4 weeks
Description: Endothelial cells from the kidneys of non-diabetic and diabetic mice were isolated using a standardized kit (Miltenyl Biotech, USA) by following the manufacturer's instructions. Briefly, kidneys were isolated and minced into small pieces. Using a series of enzymatic reactions by treating the tissue with trypsin and Collagenase type I solution, a single cell suspension was created. The pellet was dissolved with CD31 magnetic beads and the CD31-labelled cells were separated on a magnetic separator. The cells were further purified on a column. Cell number was counted by hemocytometer and cells were plated on 0.1% gelatin coated Petri dishes.
Cultured isolated kidney endothelial cells were incubated with medium containing 0.75 mmol/L palmitate (conjugated to 2% free fatty acid-free BSA/[^14C] palmitate at 2 μCi/mL) for 2 h. One mL of the culture medium was transferred to a sealable tube, the cap of which housed a Whatman filter paper disc. ^14CO2 trapped in the media was then released by acidification of media using 60% perchloric acid. Radioactivity that had become adsorbed onto the filter discs was then quantified by liquid scintillation counting.
It is increasingly recognized that defects in central metabolism contribute to kidney fibrosis (69, 76). Defective FA metabolism in EC leads to EndMT events (77). To investigate whether FA metabolism was deranged in the model, radiolabeled [^14C]palmitate uptake experiments were performed in isolated EC from mouse kidneys. FA uptake was higher in isolated EC from the diabetic kidneys of the more fibrotic strain (diabetic CD-1) when compared to kidney EC from the less-fibrotic strain (diabetic C57BL/6). […] FA oxidation (FAO) was also assessed by measuring the ^14CO2 release from radiolabeled [^14C]palmitate in cultured EC isolated from kidneys. […] In the next set of experiments, diabetic CD-1 mice were treated with the FA synthase inhibitor C75, the FAO inhibitor etomoxir, the PPARα agonist fenofibrate, and the cholesterol-lowering drug simvastatin for 4 weeks. […] (FIG. 23A). Fenofibrate and C75 restored the level of GR protein in CD31 positive cells, whereas etomoxir and simvastatin suppressed it (FIG. 23B).

[2] = test system: canonical Wnt signaling pathway; experiment: qPCR of canonical Wnt-dependent genes in Wnt3a-treated MLECs; type: cell-based, mouse
Description: ChIP DNA or total RNA was used for qPCR. Total RNA was isolated using standard Trizol protocol. RNA was reverse transcribed using the iScript cDNA Synthesis kit (Bio-Rad) and qPCR was performed on a Bio-Rad C1000 Touch thermal cycler using the resultant cDNA, qPCR master mix and gene specific primers. The following primers were used: […]
MLECS were cultured and starved for 4 hours in 0.5% FBS. Cells were treated for 4 hours with Wnt3a (200 ng/ml).
To further examine the specificity of GR in this interaction, a similar experiment in GR siRNA-treated cells was performed.

[3] = Wnt3a-conditioned media 6 hours, then DEX 100 nM 1 hour

Molecule	body weight [1]	CPT1a level in kidneys ([1]; diabetic control mice)	level of β-catenin in kidneys ([1]; diabetic control mice)	renal fibrogenic phenotype ([1]; diabetic control mice)	fibrogenic phenotype / level of fibrosis in kidneys (diabetic CD-1 mice)	fibronectin mRNA level in diabetic kidneys (diabetic CD-1 mice)	level of GR protein in CD31 positive cells (diabetic CD-1 mice)	αSMA mRNA level in diabetic kidneys (diabetic CD-1 mice)	CPT1a level (diabetic CD-1 mice)	β-catenin level (diabetic CD-1 mice)	FAO, as measured by 14CO2 release (kidney endothelial cells)	FAO in kidney EC (kidney endothelial cells; diabetic GR^ECKO mice)	FAO in kidney EC (kidney endothelial cells; diabetic control littermates)	also measured
C=C1C(=O)OC(CCCCCCCC)C1C(=O)O (stereo not shown) [C75]	no significant differences	restored CPT1a	completely diminished the level of β-catenin	clearly abolished the renal fibrogenic phenotype	ameliorated the fibrogenic phenotype	downregulated	restored	downregulated	induced the level of CPT1a	suppressed the level of β-catenin	increased the level of FAO	unable to rescue the level of FAO	restored FAO	–
C[C@@H]1C[C@H]2[C@@H]3CCC4=CC(=O)C=C[C@]4(C)[C@@]3(F)[C@@H](O)C[C@]2(C)[C@@]1(O)C(=O)COP(=O)(O)O [DEX, Dexamethasone phosphate]	–	–	–	–	–	–	–	–	–	–	–	–	–	sox17 expression, control siRNA vs GR siRNA cells ([2]; Wnt3a 200 ng/ml 4 hours, DEX 100 nM 1 hour): suppressed sox17 expression to a much greater extent in control-siRNA treated cells than in GR siRNA-treated cells; axin2 expression [2, 3]: a similar pattern was observed; sox17 expression [2, 3]: suppressed expression
CCOC(=O)[C@@]1(CCCCCCOc2ccc(Cl)cc2)CO1 [etomoxir]	no significant differences	suppressed the CPT1a level	increased the expression level of β-catenin	accelerated the renal fibrogenic phenotype	exacerbated the fibrosis	upregulated	suppressed	upregulated	significant suppression	induced	significant suppression	significant suppression in FAO	significant suppression in FAO	CPT1a level in kidneys ([1]; diabetic GR^ECKO mice): suppressed the CPT1a level; level of β-catenin in kidneys ([1]; diabetic GR^ECKO mice): increased the expression level of β-catenin; renal fibrogenic phenotype ([1]; diabetic GR^ECKO mice): accelerated the renal fibrogenic phenotype
Wnt3a	–	–	–	–	–	–	–	–	–	–	–	–	–	sox17 expression, effect of Wnt3a in GR siRNA-treated cells ([2]; Wnt3a 200 ng/ml 4 hours, GR knockdown): augmented; sox17 expression, effect of Wnt3a ([2]; Wnt3a-conditioned media, MLECs): induced
